biological target: P2X7 receptor (Homo sapiens (Human), UniProt Q99572); test: P2X7 FLIPR assay (BzATP-stimulated calcium fluorescence, antagonist IC50); assay type: cell-based; details: not given
Procedure: This example illustrates representative assays for use in evaluating the test compounds for antagonist activity. Compounds of the present invention were tested in vitro for their ability to act as antagonists to the P2X7receptor. […]
Cells were plated to cell density of approximately 15,000 cells/well in 384-well assay plates (50 μl/well) with 1.5% low serum media (DMEM, 1.5% FBS, 1% L-glut (2 mM), 10 mM HUES, 1% P/S). Cells were plated 24 hours prior to assay. Cells expressing human, rat or mouse P2X7 receptor were assayed in the following manner.
Fluo-4 NW dye mix (Molecular Probes, Inc., Eugene, Oreg., USA) was prepared in buffer (see manufacturer's instructions). Cell plates were removed from the 37° C. incubator, the media discarded and then 30 μL of dye was added to each well. Plates were placed in the 37° C., non-CO2 incubator for 30 minutes and then room temperature for 30 minutes.
Compound mixtures (A) were added to assay plates containing cells and placed at room temperature for 30 minutes, then BzATP (B) was added. Fluorescence was read using the Tetra FLIPR® (Molecular Devices, Inc., Sunnyvale, Calif., USA) and IC50 values were calculated by standard methods to determine antagonist activity.

Sequence of P2X7 receptor (Q99572 whole entry): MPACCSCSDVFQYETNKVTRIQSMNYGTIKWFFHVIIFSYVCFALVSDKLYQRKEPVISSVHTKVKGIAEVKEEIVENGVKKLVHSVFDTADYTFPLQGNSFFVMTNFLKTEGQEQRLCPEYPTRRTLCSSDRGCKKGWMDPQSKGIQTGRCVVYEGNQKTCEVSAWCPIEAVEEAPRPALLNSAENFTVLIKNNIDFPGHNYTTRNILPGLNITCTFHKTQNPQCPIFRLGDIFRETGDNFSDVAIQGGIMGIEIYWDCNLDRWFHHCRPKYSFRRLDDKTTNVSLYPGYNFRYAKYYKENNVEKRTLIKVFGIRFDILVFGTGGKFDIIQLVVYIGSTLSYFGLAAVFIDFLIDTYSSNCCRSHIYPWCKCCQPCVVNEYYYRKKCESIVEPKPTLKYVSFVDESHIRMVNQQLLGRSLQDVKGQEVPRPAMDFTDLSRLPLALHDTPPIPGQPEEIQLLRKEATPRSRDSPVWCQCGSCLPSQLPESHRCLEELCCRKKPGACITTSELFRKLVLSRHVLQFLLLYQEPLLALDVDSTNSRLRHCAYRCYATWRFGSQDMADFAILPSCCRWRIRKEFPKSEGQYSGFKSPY

IC50 [nM] | SMILES
41 | O=C(NCC1(c2ccc(C(F)(F)F)cc2)CCOCC1)c1cccc(Cl)c1Cl
7.3 | Cc1ccc(C2(CNC(=O)c3cccc(Cl)c3Cl)CCC(F)(F)CC2)cn1
100 | COc1cccc(C(=O)NCC2(c3ccc(F)nc3)CCC(F)(F)CC2)c1F
4.1 | O=C(NC[C@H](c1cnc(C(F)(F)F)nc1)C1CCOCC1)c1cccc(Cl)c1Cl (single isomer, unassigned) [(+)2,3-dichloro-N-[2-tetrahydropyran-4-yl-2-[2-trifluoromethyl)pyrimidin-5-yl]ethyl]benzamide]
28 | Cc1ncc(C(CNC(=O)c2cccc(Cl)c2Cl)C2CCOCC2)cn1 (single isomer, unassigned; (+)) [(+)2,3-dichloro-N-[2-(2-methylpyrimidin-5-yl)-2-tetrahydropy] [(+)2,3-dichloro-N-[2-(2-methylpyrimidin-5-yl)-2-tetrahydropyran-4-yl-ethyl]benzamide]
1.5 | Cc1ncc(C(CNC(=O)c2cccc(Cl)c2Cl)CC2(C(F)(F)F)CC2)cn1 (single isomer, unassigned; (+)) [(+)2,3-dichloro-N-[2-(2-methylpyrimidin-5-yl)-3-[1-(trifluor] [(+)2,3-dichloro-N-[2-(2-methylpyrimidin-5-yl)-3-[1-(trifluoromethyl)cyclopropyl]propyl]benzamide]
5.7 | O=C(NCC(c1cnc(C(F)(F)F)nc1)C1CCC(F)(F)CC1)c1cccc(Cl)c1Cl (single isomer, unassigned; (+)) [(+)2,3-dichloro-N-[2-(4,4-difluorocyclohexyl)-2-[2-(trifluor] [(+)2,3-dichloro-N-[2-(4,4-difluorocyclohexyl)-2-[2-(trifluoromethyl)pyrimidin-5-yl]ethyl]benzamide]
1.1 | O=C(NCC(c1ccc(F)cc1)c1cnc(C(F)(F)F)nc1)c1cccc(Cl)c1Cl (single isomer, unassigned; (+)) [(+)2,3-dichloro-N-[2-(4-fluorophenyl)-2-[2-(trifluoromethyl)] [(+)2,3-dichloro-N-[2-(4-fluorophenyl)-2-[2-(trifluoromethyl)pyrimidin-5-yl]ethyl]benzamide]
12 | O=C(NCC(c1ccc(F)cc1)c1ccc(C(F)(F)F)nc1)c1cccc(Cl)c1Cl (single isomer, unassigned; (+)) [(+)2,3-dichloro-N-[2-(4-fluorophenyl)-2-[6-(trifluoromethyl)] [(+)2,3-dichloro-N-[2-(4-fluorophenyl)-2-[6-(trifluoromethyl)-3-pyridyl]ethyl]benzamide]
1.6 | O=C(NCC(CC1(C(F)(F)F)CC1)c1cnc(C(F)(F)F)nc1)c1cccc(Cl)c1Cl (single isomer, unassigned; (+)) [(+)2,3-dichloro-N-[3-[1-(trifluoromethyl)cyclopropyl]-2-[2-(] [(+)2,3-dichloro-N-[3-[1-(trifluoromethyl)cyclopropyl]-2-[2-(trifluoromethyl)pyrimidin-5-yl]propyl]benzamide]
12 | O=C(NCC(CC1(C(F)(F)F)CC1)c1ccc(C(F)(F)F)nc1)c1cccc(Cl)c1Cl (single isomer, unassigned; (+)) [(+)2,3-dichloro-N-[3-[1-(trifluoromethyl)cyclopropyl]-2-[6-(] [(+)2,3-dichloro-N-[3-[1-(trifluoromethyl)cyclopropyl]-2-[6-(trifluoromethyl)-3-pyridyl]propyl]benzamide]
23 | O=C(NCC(CC1CC1)c1cnc(C(F)F)nc1)c1cccc(Cl)c1Cl (single isomer, unassigned; (+)) [(+)2,3-dichloro-N-[3-cyclopropyl-2-[2-(difluoromethyl)pyrimi] [(+)2,3-dichloro-N-[3-cyclopropyl-2-[2-(difluoromethyl)pyrimidin-5-yl]propyl]benzamide]
3.9 | O=C(NCC(CC1CC1)c1cnc(C(F)(F)F)nc1)c1cccc(Cl)c1Cl (single isomer, unassigned; (+)) [(+)2,3-dichloro-N-[3-cyclopropyl-2-[2-(trifluoromethyl)pyrim] [(+)2,3-dichloro-N-[3-cyclopropyl-2-[2-(trifluoromethyl)pyrimidin-5-yl]propyl]benzamide]
740 | CC(C)(O)c1ccc(C(CNC(=O)c2cccc(Cl)c2Cl)CC2CC2)cn1 (single isomer, unassigned; (+)) [(+)2,3-dichloro-N-[3-cyclopropyl-2-[6-(1-hydroxy-1-methyl-et] [(+)2,3-dichloro-N-[3-cyclopropyl-2-[6-(1-hydroxy-1-methyl-ethyl)-3-pyridyl]propyl]benzamide]
24 | O=C(NCC(CC1CC1)c1ccc(C(F)F)nc1)c1cccc(Cl)c1Cl (single isomer, unassigned; (+)) [(+)2,3-dichloro-N-[3-cyclopropyl-2-[6-(difluoromethyl)-3-pyridyl]propyl]benzamide]
2.6 | O=C(NCC(CC1CC1)c1ccc(C(F)(F)F)nc1)c1cccc(Cl)c1Cl (single isomer, unassigned; (+)) [(+)2,3-dichloro-N-[3-cyclopropyl-2-[6-(trifluoromethyl)-3-py] [(+)2,3-dichloro-N-[3-cyclopropyl-2-[6-(trifluoromethyl)-3-pyridyl]propyl]benzamide]
74 | CC(CNC(=O)c1cccc(Cl)c1Cl)(CC1CC1)c1cnc(C(F)(F)F)nc1 (single isomer, unassigned; (+)) [(+)2,3-dichloro-N-[3-cyclopropyl-2-methyl-2-[2-(trifluoromethyl)pyrimidin-5-yl]propyl]benzamide]
12 | O=C(NCC(c1ccccc1)c1ccc(C(F)(F)F)nc1)c1c(Cl)cccc1Cl (single isomer, unassigned; (+)) [(+)2,6-dichloro-N-[2-phenyl-2-[6-(trifluoromethyl)-3-pyridyl] [(+)2,6-dichloro-N-[2-phenyl-2-[6-(trifluoromethyl)-3-pyridyl]ethyl]benzamide]
220 | Cc1ncc(C(CNC(=O)c2c(Cl)cccc2Cl)CC2CC2)cn1 (single isomer, unassigned; (+)) [(+)2,6-dichloro-N-[3-cyclopropyl-2-(2-methylpyrimidin-5-yl)p] [(+)2,6-dichloro-N-[3-cyclopropyl-2-(2-methylpyrimidin-5-yl)propyl]benzamide]
3.8 | O=C(NCC(CC1CC1)c1cnc(C(F)(F)F)nc1)c1c(Cl)cccc1Cl (single isomer, unassigned; (+)) [(+)2,6-dichloro-N-[3-cyclopropyl-2-[2-(trifluoromethyl)pyrim] [(+)2,6-dichloro-N-[3-cyclopropyl-2-[2-(trifluoromethyl)pyrimidin-5-yl]propyl]benzamide]
0.89 | O=C(NCC(CC1CC1)c1ccc(C(F)(F)F)nc1)c1c(Cl)cccc1Cl (single isomer, unassigned; (+)) [(+)2,6-dichloro-N-[3-cyclopropyl-2-[6-(trifluoromethyl)-3-py] [(+)2,6-dichloro-N-[3-cyclopropyl-2-[6-(trifluoromethyl)-3-pyridyl]propyl]benzamide]
4.8 | O=C(NCC(c1ccc(F)cc1)c1cnc(C(F)(F)F)nc1)c1cccc(F)c1Cl (single isomer, unassigned; (+)) [(+)2-chloro-3-fluoro-N-[2-(4-fluorophenyl)-2-[2-(trifluorome] [(+)2-chloro-3-fluoro-N-[2-(4-fluorophenyl)-2-[2-(trifluoromethyl)pyrimidin-5-yl]ethyl]benzamide]
4.6 | O=C(NCC(c1ccc(F)cc1)c1ccc(C(F)(F)F)nc1)c1cccc(F)c1Cl (single isomer, unassigned; (+)) [(+)2-chloro-3-fluoro-N-[2-(4-fluorophenyl)-2-[6-(trifluorome] [(+)2-chloro-3-fluoro-N-[2-(4-fluorophenyl)-2-[6-(trifluoromethyl)-3-pyridyl]ethyl]benzamide]
32 | O=C(NCC(c1cnc(C(F)(F)F)nc1)C1CCOCC1)c1cccc(F)c1Cl (single isomer, unassigned; (+)) [(+)2-chloro-3-fluoro-N-[2-tetrahydropyran-4-yl-2-[2-(trifluo] [(+)2-chloro-3-fluoro-N-[2-tetrahydropyran-4-yl-2-[2-(trifluoromethyl)pyrimidin-5-yl]ethyl]benzamide]
4.5 | O=C(NCC(CC1(C(F)(F)F)CC1)c1cnc(C(F)(F)F)nc1)c1cccc(F)c1Cl (single isomer, unassigned; (+)) [(+)2-chloro-3-fluoro-N-[3-[1-(trifluoromethyl)cyclopropyl]-2] [(+)2-chloro-3-fluoro-N-[3-[1-(trifluoromethyl)cyclopropyl]-2-[2-(trifluoromethyl)pyrimidin-5-yl]propyl]benzamide]

same assay, conditions: listed as (+)N-[3-cyclopropyl-2-[6-(trifluoromethyl)-3-pyridyl]propyl]-2-methoxy-benzamide

IC50 [nM] | SMILES
990 | COc1ccccc1C(=O)NCC(CC1CC1)c1ccc(C(F)(F)F)nc1 (single isomer, unassigned) [Example 4p, (+)—N-(3-cyclopropyl-2-(6-(trifluoromethyl)pyridin-3-yl)propyl)-2-methoxybenzamide]

same assay, conditions: listed as (−)N-[3-cyclopropyl-2-[6-(trifluoromethyl)-3-pyridyl]propyl]-2-methoxy-benzamide

IC50 [nM] | SMILES
53 | COc1ccccc1C(=O)NCC(CC1CC1)c1ccc(C(F)(F)F)nc1 (single isomer, unassigned) [Example 4o, (−)—N-(3-cyclopropyl-2-(6-(trifluoromethyl)pyridin-3-yl)propyl)-2-methoxybenzamide]

Reference: patent US9102591B2, “Benzamides” (H. Lundbeck A/S, priority 2012, dated 2015)
